Measured values taken from ChEMBL document CHEMBL1138099, “Synthesis and structure-activity studies of antibacterial oxazolidinones containing dihydrothiopyran or dihydrothiazine C-rings” (2006).
Values after ≈ are worked out from the molar mass of the structure shown.

Assays:
Type in all cases: functional
Staphylococcus aureus = assay: Antimicrobial activity against Staphylococcus aureus
Moraxella catarrhalis = assay: Antimicrobial activity against Moraxella catarrhalis
Haemophilus influenzae = assay: Antimicrobial activity against Haemophilus influenzae
Enterococcus faecium = assay: Antimicrobial activity against Enterococcus faecium UC12712
Streptococcus pneumoniae = assay: Antimicrobial activity against Streptococcus pneumoniae

SMILES	MIC (Staphylococcus aureus) [µg/mL]	MIC (Moraxella catarrhalis) [µg/mL]	MIC (Haemophilus influenzae) [µg/mL]	MIC (Enterococcus faecium) [µg/mL]	MIC (Streptococcus pneumoniae) [µg/mL]
O=C(NC[C@H]1CN(c2cc(F)c(N3C=CS(=O)(=O)CC3)c(F)c2)C(=O)O1)C(F)F	4 (≈ 9.15 µM)	4 (≈ 9.15 µM)	4 (≈ 9.15 µM)	1 (≈ 2.29 µM)	0.5 (≈ 1.14 µM)
O=C1O[C@@H](C/N=C(/S)C(F)F)CN1c1ccc(N2C=CS(=O)(=O)CC2)c(F)c1	1 (≈ 2.3 µM)	4 (≈ 9.19 µM)	4 (≈ 9.19 µM)	1 (≈ 2.3 µM)	0.5 (≈ 1.15 µM)
O=C(NC[C@H]1CN(c2ccc(N3C=CS(=O)(=O)CC3)cc2)C(=O)O1)C(F)F	4 (≈ 9.97 µM)	4 (≈ 9.97 µM)	8 (≈ 19.9 µM)	2 (≈ 4.98 µM)	1 (≈ 2.49 µM)
O=C1O[C@@H](C/N=C(/S)C(F)F)CN1c1ccc(C2C=CS(=O)(=O)CC2)c(F)c1 (stereo partly drawn)	2 (≈ 4.6 µM)	2 (≈ 4.6 µM)	8 (≈ 18.4 µM)	1 (≈ 2.3 µM)	0.5 (≈ 1.15 µM)
O=C(NC[C@H]1CN(c2cc(F)c(C3C=CS(=O)(=O)CC3)c(F)c2)C(=O)O1)C(Cl)Cl (stereo partly drawn)	2 (≈ 4.26 µM)	4 (≈ 8.52 µM)	8 (≈ 17 µM)	2 (≈ 4.26 µM)	0.5 (≈ 1.07 µM)
O=C1O[C@@H](C/N=C(/S)C(F)F)CN1c1cc(F)c(C2C=CS(=O)(=O)CC2)c(F)c1 (stereo partly drawn)	1 (≈ 2.21 µM)	4 (≈ 8.84 µM)	16 (≈ 35.4 µM)	2 (≈ 4.42 µM)	0.5 (≈ 1.11 µM)
O=C(NC[C@H]1CN(c2ccc(C3C=CS(=O)(=O)CC3)cc2)C(=O)O1)C(Cl)Cl (stereo partly drawn)	2 (≈ 4.62 µM)	4 (≈ 9.23 µM)	4 (≈ 9.23 µM)	2 (≈ 4.62 µM)	0.5 (≈ 1.15 µM)
O=C(NC[C@H]1CN(c2ccc(C3C=CS(=O)(=O)CC3)c(F)c2)C(=O)O1)C(F)F (stereo partly drawn)	2 (≈ 4.78 µM)	4 (≈ 9.56 µM)	4 (≈ 9.56 µM)	2 (≈ 4.78 µM)	1 (≈ 2.39 µM)
O=C1O[C@@H](C/N=C(/S)C(F)F)CN1c1ccc(C2C=CS(=O)(=O)CC2)cc1 (stereo partly drawn)	2 (≈ 4.8 µM)	4 (≈ 9.6 µM)	8 (≈ 19.2 µM)	2 (≈ 4.8 µM)	0.5 (≈ 1.2 µM)
O=C(NC[C@H]1CN(c2ccc(C3C=CS(=O)(=O)CC3)c(F)c2)C(=O)O1)C(Cl)Cl (stereo partly drawn)	2 (≈ 4.43 µM)	2 (≈ 4.43 µM)	4 (≈ 8.86 µM)	2 (≈ 4.43 µM)	0.5 (≈ 1.11 µM)
O=C(NC[C@H]1CN(c2cc(F)c(C3C=CS(=O)(=O)CC3)c(F)c2)C(=O)O1)C(F)F (stereo partly drawn)	2 (≈ 4.58 µM)	8 (≈ 18.3 µM)	8 (≈ 18.3 µM)	2 (≈ 4.58 µM)	1 (≈ 2.29 µM)
O=C(NC[C@H]1CN(c2ccc(N3C=CS(=O)(=O)CC3)c(F)c2)C(=O)O1)C(F)F	4 (≈ 9.54 µM)	4 (≈ 9.54 µM)	4 (≈ 9.54 µM)	2 (≈ 4.77 µM)	0.5 (≈ 1.19 µM)
CC(=O)NC[C@H]1CN(c2ccc(C3C=CS(=O)(=O)CC3)c(F)c2)C(=O)O1 (stereo partly drawn)	4 (≈ 10.5 µM)	2 (≈ 5.23 µM)	8 (≈ 20.9 µM)	2 (≈ 5.23 µM)	1 (≈ 2.61 µM)
CC(=O)NC[C@H]1CN(c2ccc(C3C=CS(=O)(=O)CC3)cc2)C(=O)O1 (stereo partly drawn)	4 (≈ 11 µM)	8 (≈ 22 µM)	8 (≈ 22 µM)	4 (≈ 11 µM)	1 (≈ 2.74 µM)
CC(=O)NC[C@H]1CN(c2ccc(N3C=CS(=O)(=O)CC3)c(F)c2)C(=O)O1	4 (≈ 10.4 µM)	2 (≈ 5.22 µM)	4 (≈ 10.4 µM)	2 (≈ 5.22 µM)	0.5 (≈ 1.3 µM)
O=C(NC[C@H]1CN(c2ccc(C3C=CS(=O)(=O)CC3)cc2)C(=O)O1)C(F)F (stereo partly drawn)	4 (≈ 9.99 µM)	4 (≈ 9.99 µM)	8 (≈ 20 µM)	4 (≈ 9.99 µM)	1 (≈ 2.5 µM)
O=C(NC[C@H]1CN(c2ccc(N3C=CS(=O)(=O)CC3)c(F)c2)C(=O)O1)C(Cl)Cl	2 (≈ 4.42 µM)	2 (≈ 4.42 µM)	2 (≈ 4.42 µM)	1 (≈ 2.21 µM)	0.5 (≈ 1.11 µM)
O=C1O[C@@H](C/N=C(/S)C(F)F)CN1c1cc(F)c(N2C=CS(=O)(=O)CC2)c(F)c1	1 (≈ 2.21 µM)	2 (≈ 4.41 µM)	4 (≈ 8.82 µM)	0.25 (≈ 0.551 µM)	0.25 (≈ 0.551 µM)
CC(=O)NC[C@H]1CN(c2cc(F)c(N3CCS(=O)(=O)CC3)c(F)c2)C(=O)O1	2 (≈ 4.96 µM)	4 (≈ 9.92 µM)	4 (≈ 9.92 µM)	2 (≈ 4.96 µM)	1 (≈ 2.48 µM)
CC(=O)NC[C@H]1CN(c2ccc(C3CCS(=O)(=O)CC3)c(F)c2)C(=O)O1	2 (≈ 5.2 µM)	2 (≈ 5.2 µM)	4 (≈ 10.4 µM)	2 (≈ 5.2 µM)	0.5 (≈ 1.3 µM)
O=C(NC[C@H]1CN(c2cc(F)c(N3C=CS(=O)(=O)CC3)c(F)c2)C(=O)O1)C(Cl)Cl	4 (≈ 8.51 µM)	4 (≈ 8.51 µM)	4 (≈ 8.51 µM)	1 (≈ 2.13 µM)	0.5 (≈ 1.06 µM)
CC(=O)NC[C@H]1CN(c2cc(F)c(N3C=CS(=O)(=O)CC3)c(F)c2)C(=O)O1	2 (≈ 4.98 µM)	4 (≈ 9.97 µM)	8 (≈ 19.9 µM)	1 (≈ 2.49 µM)	0.5 (≈ 1.25 µM)
O=C(NC[C@H]1CN(c2ccc(N3C=CS(=O)(=O)CC3)cc2)C(=O)O1)C(Cl)Cl	4 (≈ 9.21 µM)	2 (≈ 4.61 µM)	2 (≈ 4.61 µM)	2 (≈ 4.61 µM)	0.5 (≈ 1.15 µM)
CC(=O)NC[C@H]1CN(c2ccc(N3CCOCC3)c(F)c2)C(=O)O1 [LINEZOLID]	–	8 (≈ 23.7 µM)	16 (≈ 47.4 µM)	4 (≈ 11.9 µM)	–
CC(=O)NC[C@H]1CN(c2cc(F)c(C3C=CS(=O)(=O)CC3)c(F)c2)C(=O)O1 (stereo partly drawn)	4 (≈ 9.99 µM)	8 (≈ 20 µM)	8 (≈ 20 µM)	2 (≈ 4.99 µM)	1 (≈ 2.5 µM)
O=C1O[C@@H](C/N=C(/S)C(F)F)CN1c1ccc(N2C=CS(=O)(=O)CC2)cc1	2 (≈ 4.79 µM)	4 (≈ 9.58 µM)	4 (≈ 9.58 µM)	1 (≈ 2.4 µM)	0.5 (≈ 1.2 µM)
